In US8324264B1, “Inhibitors of bacterial biofilms and related methods” (Sequoia Sciences, Inc., priority 2011, dated 2012):
In brackets after ≈: the same amount, converted by molar mass.

Assays:
P. aeruginosa biofilms = assay: Biofilm growth assay (spreading biofilm on semi-solid agar), P. aeruginosa; type: cell-based; settings: biofilm growth assay, overnight 37° C., vs negative controls, Tables 1-5; for IC85: Pseudomonas aeruginosa, read-out: P. aeruginosa: concentration that reduces the area of the spreading biofilm by greater than or equal to 85%
From the text: (§1) “Biofilm Growth Assay” refers to an assay performed on semi-solid agar surface where the bacteria collectively move out from an inoculation point. To those skilled in the art, the act of bacteria collectively moving out from an inoculation point on a semi-solid surface may be referred to as swarming or a spreading biofilm. (Anderson, et al Microbiology, 2003, 149, 37-46; Daniels, et al. FEMS Microbiology Reviews, 2004, 28, 261-289). The procedure to perform this assay is described in detail in the Examples. This type of surface motility by bacteria has been reported in the literature by those skilled in the art. […] These references are incorporated herein by reference in their entirety.
(§2) The biofilm growth assay was carried out to measure swarming or biofilm spreading on semi-solid agar media in round plates (for example, 100×15 mm), also referred to as Petri dishes. For E. coli, the plates contained LB medium with 0.6% agar and 0.5% glucose. P. aeruginosa plates were made with M8 agar supplemented with 0.2% glucose, 100 μM CaCl2, 1 mM MgSO4, and 0.5% Casamino acids. The agar plates of this assay consisted of 0.4% to 0.7% agar (Bacto or Noble agar), although other media may also be used as described in the literature and known to those skilled in the art. Test compounds at the desired concentration were added to the cooled, autoclaved media. Portions of the media were then poured into the plates (20 mL/plate), and the plates allowed to dry at room temperature for approximately 3 to 4 hours. Alternatively, however, plates may be dried in a laminar flow hood for approximately fifteen to twenty minutes. Overnight cultures were grown in a 37° C. shaker in LB (E. coli) or TSB (P. aeruginosa). Plates were inoculated by placing 5 μL of the appropriate overnight culture in the centers of the plates. The plates then were incubated overnight at 37° C. The area of the zone of spreading bacteria was then measured and replicates are averaged. Percent inhibition was calculated as 100×(area without compound−area with compound)/(area without compound). An active compound was considered that which reduces the area of the spreading biofilm compared to negative controls by greater than or equal to 85%. The values shown in Table 1 are the concentrations of compounds (μg/ml) tested in the biofilm growth assay that reduce the area of the spreading biofilm compared to negative controls by greater than or equal to 85% unless noted differently in Table 1. A > (“greater than” symbol) as used in Table 1 is well understood to those skilled in the art as an indication that the listed concentration was not effective at this concentration.
(§3) All of the compounds shown in Tables 2, 3, 4, and 5, below, were prepared semi-synthetically from oleanolic acid, except for Compounds 2 and 3. Compound 2 was prepared from ursolic acid. Compound 3 was prepared from hederagenin, but could also be prepared from an oleanolic acid analog with a hydroxyl at C23 or C24. These compounds were tested in the spreading biofilm assay according to the methods detailed in Example I, above. The values shown in Tables 2, 3, 4, and 5 are the concentrations of compounds tested in the biofilm growth assay that reduce the area of the spreading biofilm compared to negative controls by greater than or equal to 85%.

E. coli biofilms = assay: Biofilm growth assay (spreading biofilm on semi-solid agar), E. coli; type: cell-based; settings: biofilm growth assay, overnight 37° C., vs negative controls, Tables 1-5; for IC85: Escherichia coli, read-out: E. coli: concentration that reduces the area of the spreading biofilm by greater than or equal to 85%
From the text: as §1, §2, §3

## C[C@H]1[C@H](C)CC[C@]2(C(=O)O)CC[C@]3(C)C(=CCC4[C@@]5(C)Cc6c(n[nH]c6N)C(C)(C)[C@@H]5CC[C@]43C)[C@H]12 (stereo partly drawn) [Example 2, (4aS,6aS,6bR,13aR)-12-Amino-2,2,6a,6b,9,9,13a-heptamethyl-2,3,4,4a,5,6,6a,6b,7,8,8a,9,11,13,13a,13b,14,15b-octadecahydro-1H-chryseno[1,2-f]indazole-4-a-carboxylic acid]
P. aeruginosa biofilms
  IC85: 0.5 µg/mL (≈ 1.01 µM)
E. coli biofilms
  IC85: 1 µg/mL (≈ 2.03 µM)

## C[C@@H]1c2n[nH]c(N)c2C[C@]2(C)C3CC=C4[C@@H]5CC(C)(C)CC[C@]5(C(=O)O)CC[C@@]4(C)[C@]3(C)CC[C@@H]12 (stereo partly drawn) [Example 3, (4aS,6aS,6bR,8aS,9S,13aS,15bS)-12-Amino-2,2,6a,6b,9,13a-hexamethyl-2,3,4,4a,5,6,6a,6b,7,8,8a,9,11,13,13a,13b,14,15b-octadecahydro-1H-chryseno[1,2-f]indazole-4-a-carboxylic acid]
P. aeruginosa biofilms
  IC85: 0.5 µg/mL (≈ 1.04 µM)
E. coli biofilms
  IC85: 1 µg/mL (≈ 2.08 µM)

## CC1=C2[C@@H]3CC(C)(C)CC[C@]3(C(=O)O)CC[C@@]2(C)[C@]2(C)CC[C@H]3C(C)(C)c4n[nH]c(N)c4C[C@]3(C)C2C1 (stereo partly drawn) [Example 4, (4aS,6aS,6bR,8aR,13aR,15bS)-12-Amino-2,2,6a,6b,9,9,13a,15-octamethyl-2,3,4,4a,5,6,6a,6b,7,8,8a,9,11,13,13a,13b,14,15b-octadecahydro-1H-chryseno[1,2-f]indazole-4-a-carboxylic acid]
P. aeruginosa biofilms
  IC85: 0.25 µg/mL (≈ 0.492 µM)
E. coli biofilms
  IC85: 1 µg/mL (≈ 1.97 µM)

## CC1(C)CC[C@]2(C(=O)O)CC[C@]3(C)C(=C(c4ccco4)CC4[C@@]5(C)Cc6c(n[nH]c6N)C(C)(C)[C@@H]5CC[C@]43C)[C@@H]2C1 (stereo partly drawn) [Example 7, (4aS,6aS,6bR,13aR)-12-Amino-15-(furan-2-yl)-2,2,6a,6b,9,9,13a-heptamethyl-2,3,4,4a,5,6,6a,6b,7,8,8a,9,11,13,13a,13b,14,15b-octadecahydro-1H-chryseno[1,2-f]indazole-4-a-carboxylic acid]
P. aeruginosa biofilms
  IC85: 0.25 µg/mL (≈ 0.447 µM)
E. coli biofilms
  IC85: 1 µg/mL (≈ 1.79 µM)

## CN(C)c1ccc(C2=C3[C@@H]4CC(C)(C)CC[C@]4(C(=O)O)CC[C@@]3(C)[C@]3(C)CC[C@H]4C(C)(C)c5n[nH]c(N)c5C[C@]4(C)C3C2)cc1 (stereo partly drawn) [Example 10, (4aS,6aS,6bR,13aR)-12-Amino-15-(4-(dimethylamino)phenyl)-2,2,6a,6b,9,9,13a-heptamethyl-2,3,4,4a,5,6,6a,6b,7,8,8a,9,11,13,13a,13b,14,15b-octadecahydro-1H-chryseno[1,2-f]indazole-4-a-carboxylic acid]
P. aeruginosa biofilms
  IC85: 0.5 µg/mL (≈ 0.816 µM)
E. coli biofilms
  IC85: 1 µg/mL (≈ 1.63 µM)

## CC1(C)CC[C@]2(C(=O)O)CC[C@]3(C)C(=C(c4ccc5c(c4)CCN5)CC4[C@@]5(C)Cc6c(n[nH]c6N)C(C)(C)[C@@H]5CC[C@]43C)[C@@H]2C1 (stereo partly drawn) [Example 11, (4aS,6aS,6bR,13aR)-12-Amino-15-(indolin-5-yl)-2,2,6a,6b,9,9,13a-heptamethyl-2,3,4,4a,5,6,6a,6b,7,8,8a,9,11,13,13a,13b,14,15b-octadecahydro-1H-chryseno[1,2-f]indazole-4-a-carboxylic acid]
P. aeruginosa biofilms
  IC85: 0.5 µg/mL (≈ 0.818 µM)
E. coli biofilms
  IC85: 0.5 µg/mL (≈ 0.818 µM)

## CCC1=C2[C@@H]3CC(C)(C)CC[C@]3(C(=O)O)CC[C@@]2(C)[C@]2(C)CC[C@H]3C(C)(C)c4n[nH]c(N)c4C[C@]3(C)C2C1 (stereo partly drawn) [Example 14, (4aS,6aS,6bR,8aR,13aR,15bS)-12-Amino-15-ethyl-2,2,6a,6b,9,9,13a-heptamethyl-2,3,4,4a,5,6,6a,6b,7,8,8a,9,11,13,13a,13b,14,15b-octadecahydro-1H-chryseno[1,2-f]indazole-4-a-carboxylic acid]
P. aeruginosa biofilms
  IC85: 0.5 µg/mL (≈ 0.958 µM)
E. coli biofilms
  IC85: 2 µg/mL (≈ 3.83 µM)

## CC1(C)CC[C@]2(C(=O)O)CC[C@]3(C)C(=C(c4cccc(N)c4)CC4[C@@]5(C)Cc6c(n[nH]c6N)C(C)(C)[C@@H]5CC[C@]43C)[C@@H]2C1 (stereo partly drawn) [Example 15, (4aS,6aS,6bR,8aR,13aR,15bS)-12-Amino-15-(3-aminophenyl)-2,2,6a,6b,9,9,13a-heptamethyl-2,3,4,4a,5,6,6a,6b,7,8,8a,9,11,13,13a,13b,14,15b-octadecahydro-1H-chryseno[1,2-f]indazole-4-a-carboxylic acid]
P. aeruginosa biofilms
  P. aeruginosa: concentration that reduces the area of the spreading biofilm by greater than or equal to 85%: 0.25 µg/mL
E. coli biofilms
  E. coli: concentration that reduces the area of the spreading biofilm by greater than or equal to 85%: 1 µg/mL

## CC1(C)CC[C@]2(C(=O)O)CC[C@]3(C)C(=C(c4cccc(O)c4)CC4[C@@]5(C)Cc6c(n[nH]c6N)C(C)(C)C5CC[C@]43C)C2C1 (stereo partly drawn) [Example 16, (4aS,6aS,6bR,13aR)-12-Amino-15-(3-hydroxyphenyl)-2,2,6a,6b,9,9,13a-heptamethyl-2,3,4,4a,5,6,6a,6b,7,8,8a,9,11,13,13a,13b,14,15b-octadecahydro-1H-chryseno[1,2-f]indazole-4-a-carboxylic acid]
P. aeruginosa biofilms
  IC85: 1 µg/mL (≈ 1.71 µM)
E. coli biofilms
  IC85: 2 µg/mL (≈ 3.41 µM)

## CC1(C)CC[C@]2(C(=O)O)CC[C@]3(C)C(=C(c4cccc(F)c4)CC4[C@@]5(C)Cc6c(n[nH]c6N)C(C)(C)[C@@H]5CC[C@]43C)[C@@H]2C1 (stereo partly drawn) [Example 17, (4aS,6aS,6bR,8aR,13aR,15bS)-12-Amino-15-(3-fluorophenyl)-2,2,6a,6b,9,9,13a-heptamethyl-2,3,4,4a,5,6,6a,6b,7,8,8a,9,11,13,13a,13b,14,15b-octadecahydro-1H-chryseno[1,2-f]indazole-4-a-carboxylic acid]
P. aeruginosa biofilms
  P. aeruginosa: concentration that reduces the area of the spreading biofilm by greater than or equal to 85%: 0.5 µg/mL
E. coli biofilms
  E. coli: concentration that reduces the area of the spreading biofilm by greater than or equal to 85%: >2 µg/mL

## CC1(C)CC[C@]2(C(=O)O)CC[C@]3(C)C(=C(c4cccc(CN)c4)CC4[C@@]5(C)Cc6c(n[nH]c6N)C(C)(C)C5CC[C@]43C)C2C1 (stereo partly drawn) [Example 18, (4aS,6aS,6bR,13aR)-12-Amino-15-(3-(aminomethyl)phenyl)-2,2,6a,6b,9,9,13a-heptamethyl-2,3,4,4a,5,6,6a,6b,7,8,8a,9,11,13,13a,13b,14,15b-octadecahydro-1H-chryseno[1,2-f]indazole-4-a-carboxylic acid]
P. aeruginosa biofilms
  P. aeruginosa: concentration that reduces the area of the spreading biofilm by greater than or equal to 85%: 0.5 µg/mL
E. coli biofilms
  E. coli: concentration that reduces the area of the spreading biofilm by greater than or equal to 85%: 1 µg/mL

## CC1(C)CC[C@]2(C(=O)O)CC[C@]3(C)C(=C(c4cccc(C(N)=O)c4)CC4[C@@]5(C)Cc6c(n[nH]c6N)C(C)(C)C5CC[C@]43C)C2C1 (stereo partly drawn) [Example 19, (4aS,6aS,6bR,13aR)-12-Amino-15-(3-carbamoylphenyl)-2,2,6a,6b,9,9,13a-heptamethyl-2,3,4,4a,5,6,6a,6b,7,8,8a,9,11,13,13a,13b,14,15b-octadecahydro-1H-chryseno[1,2-f]indazole-4-a-carboxylic acid]
P. aeruginosa biofilms
  P. aeruginosa: concentration that reduces the area of the spreading biofilm by greater than or equal to 85%: 1 µg/mL
E. coli biofilms
  E. coli: concentration that reduces the area of the spreading biofilm by greater than or equal to 85%: 1 µg/mL

## Cc1ccc(C2=C3C4CC(C)(C)CC[C@]4(C(=O)O)CC[C@@]3(C)[C@]3(C)CCC4C(C)(C)c5n[nH]c(N)c5C[C@]4(C)C3C2)cc1N (stereo partly drawn) [Example 20, (4aS,6aS,6bR,13aR)-12-Amino-15-(3-amino-4-methylphenyl)-2,2,6a,6b,9,9,13a-heptamethyl-2,3,4,4a,5,6,6a,6b,7,8,8a,9,11,13,13a,13b,14,15b-octadecahydro-1H-chryseno[1,2-f]indazole-4-a-carboxylic acid]
P. aeruginosa biofilms
  P. aeruginosa: concentration that reduces the area of the spreading biofilm by greater than or equal to 85%: 0.5 µg/mL
E. coli biofilms
  E. coli: concentration that reduces the area of the spreading biofilm by greater than or equal to 85%: 2 µg/mL

## CN(C)c1cccc(C2=C3C4CC(C)(C)CC[C@]4(C(=O)O)CC[C@@]3(C)[C@]3(C)CCC4C(C)(C)c5n[nH]c(N)c5C[C@]4(C)C3C2)c1 (stereo partly drawn) [Example 21, (4aS,6aS,6bR,13aR)-12-Amino-15-(3-(dimethylamino)phenyl)-2,2,6a,6b,9,9,13a-heptamethyl-2,3,4,4a,5,6,6a,6b,7,8,8a,9,11,13,13a,13b,14,15b-octadecahydro-1H-chryseno[1,2-f]indazole-4-a-carboxylic acid]
P. aeruginosa biofilms
  P. aeruginosa: concentration that reduces the area of the spreading biofilm by greater than or equal to 85%: 0.5 µg/mL
E. coli biofilms
  E. coli: concentration that reduces the area of the spreading biofilm by greater than or equal to 85%: >2 µg/mL
